Test results: patent publication US10349662B2, “Insecticidal compositions and methods of using the same” (priority 2011, dated 2019)
Converted amounts (≈) assume the structure as drawn. “And” between values parts separate entries of the source, which are not always exact repeats. Identical values can stand only once. Like-named read-outs stand apart in the source and are kept apart here.

How the values were obtained:
[1] = cited from earlier work
Aedes aegypti mosquitoes = experiment: Topical bioassay on adult female Aedes aegypti mosquitoes (knockdown 1 h, mortality 24 h; Colby calculation for combinations); assay type: in vivo
Excerpt: Components of a composition can have a synergistic or additive effect on insecticidal activity. Components have an additive effect when the effect of the combination is equal to the sum of the effects of each individual component. In contrast, components have a synergistic effect when the effect of the combination exceeds the sum of the effects of the components when applied individually. The effect (E) of a combination of two compounds may be calculated using the Colby formula (1) (S. R. Colby, “Calculating Synergistic and Antagonistic Responses of Herbicide Combinations”, Weeds 1967, 15, 20-22):
If the actual insecticidal kill rate is the calculated value (E), then the action of the combination is additive. If the actual insecticidal kill rate exceeds the calculated value (E), then the action of the combination is super-additive, that is, a synergistic effect is present. If the insecticidal kill rate is lower than the calculated value (E), then the action of the combination is considered antagonistic.
Adult female Aedes aegypti mosquitoes were segregated in 18″×18″ screen cages based on date of eclosion, therefore the exact age of the mosquitoes were known for bioassays.
Ten female mosquitoes, aged four to six days after eclosion, were aspirated out of their respective cage and into a small glass jar. The mosquitoes were then anesthetized with CO2 gas for 30 seconds. After the adults were anesthetized, they were quickly placed on a plastic platform for treatment application. Treatments were serially diluted (using a BrandTech Scientific Transferpette S pipette (100-1000 μL), labeled centrifuge tubes, and a vortex mixer) from stocks of insecticides using reagent grade acetone as the diluent to concentrations as indicated for each treatment solution. A treatment solution may contain additional ingredients as indicated for each study.
Using a Hamilton PB00-1 Repeating Dispenser with a Hamilton 25 Microliter Syringe, 0.5 μL of each treatment solution was applied to the thorax of each mosquito. Immediately following the application of the treatment, the mosquitoes were gently transferred into a clean paper cup and covered with screen. The mesh screen prevented the mosquitoes from escaping and allowed the specimens to be viewed for ratings. A cotton ball soaked with 10% sucrose solution was inserted into a side hole of each cup for hydration and nourishment. Each treatment variable in the study was replicated three times using separate cups for each replication.
The untreated controls treatments were anesthetized for 30 seconds and gently transferred to the paper cups. The acetone treated control was treated exactly as described above except that the solution applied to each mosquito was undiluted acetone.
The condition of the mosquitoes in each cup was recorded at one hour and 24 hours after initial treatment. The condition classifications used were (1) alive and flying, (2) alive and unable to fly, or (3) dead. The percent mortality for each treatment was calculated by summing the mortalities of each replicate then calculating the percent dead from the total number of mosquitoes.
Where indicated, the mortality data were subjected to probit analysis using the Statistical Analysis System Version 9.1 program PROC PROBIT (SAS Institute (2003) PROC user's manual, version 9.1. SAS Institute, Cary, N.C.).

[2] = Aedes aegypti, topical, 24 h, read-out: % MORTALITY AFTER 24 HRS, single active, 0.01 μg
[3] = Aedes aegypti, topical, 24 h, read-out: % MORTALITY AFTER 24 HRS, active ingredient alone, 3%, adult, virgin, female Aedes aegypti
[4] = active ingredient alone, 3%, adult, virgin, female Aedes aegypti

C=C1CC[C@@H]2[C@H]([C@H]3[C@H]1CC[C@]3(C)O)C2(C)C [Spathulenol]
Vapor Pressure (@ 25° C.) [1]: 1.2 × 10^−4 mmHg
Solubility (in water @ 25° C.) [1]: 12.4 µg/mL (≈ 56.3 µM)

CN/C(=N\[N+](=O)[O-])NCc1cnc(Cl)s1 [Clothianidin, clothianidin, reference compound]
mortality at 5 ng (Aedes aegypti mosquitoes; Aedes aegypti, topical, 24 h, read-out: % MORTALITY AFTER 24 HRS, 0.005 μg): 7%
mortality at 10 ng (Aedes aegypti mosquitoes; Aedes aegypti, topical, 24 h, read-out: % MORTALITY AFTER 24 HRS, 0.01 μg): 50%
mortality at 25 ng (Aedes aegypti mosquitoes; Aedes aegypti, topical, 24 h, read-out: % MORTALITY AFTER 24 HRS, 0.025 μg): 40%
mortality at 10 ng (Aedes aegypti mosquitoes; [2]): 47%
mortality at 15 ng (Aedes aegypti mosquitoes; Aedes aegypti, topical, 24 h, read-out: % MORTALITY AFTER 24 HRS, single active, 0.015 μg): 0%
mortality at 20 ng (Aedes aegypti mosquitoes; Aedes aegypti, topical, 24 h, read-out: % MORTALITY AFTER 24 HRS, single active, 0.02 μg): 43%

C#CCC1=C(C)C(OC(=O)C2C(C=C(C)C)C2(C)C)CC1=O (centres unmarked) [Prallethrin, prallethrin, reference compound]
mortality at 750 pg (Aedes aegypti mosquitoes; Aedes aegypti, topical, 24 h, read-out: % MORTALITY AFTER 24 HRS, 0.00075 μg): 37%
mortality at 300 pg (Aedes aegypti mosquitoes; Aedes aegypti, topical, 24 h, read-out: % MORTALITY AFTER 24 HRS, insecticide alone, 0.0003 μg, adult, virgin, female Aedes aegypti): 7%
mortality at 400 pg (Aedes aegypti mosquitoes; Aedes aegypti, topical, 24 h, read-out: % MORTALITY AFTER 24 HRS, insecticide alone, 0.0004 μg, adult, virgin, female Aedes aegypti): 40%
mortality at 750 pg (Aedes aegypti mosquitoes; Aedes aegypti, topical, 24 h, read-out: % MORTALITY AFTER 24 HRS, single active, 0.00075 μg): 20%

C=C(C)C1CC=C(CO)CC1 (racemic) [Pennyl Alcohol (racemic)]
Vapor Pressure (@ 25° C.) [1]: 0.00478 mmHg
Solubility (in water @ 25° C.) [1]: 471 µg/mL (≈ 3090 µM)

CN1COCN(Cc2cnc(Cl)s2)/C1=N\[N+](=O)[O-] [Thiamethoxam, thiamethoxam, reference compound]
mortality at 2.5 ng (Aedes aegypti mosquitoes; Aedes aegypti, topical, 24 h, read-out: % MORTALITY AFTER 24 HRS, 0.0025 μg): 3%
mortality at 7.5 ng (Aedes aegypti mosquitoes; Aedes aegypti, topical, 24 h, read-out: % MORTALITY AFTER 24 HRS, single active, 0.0075 μg): 23%
mortality at 10 ng (Aedes aegypti mosquitoes; [2]): 7%

CC[S+]([O-])c1c(C#N)nn(-c2c(Cl)cc(C(F)(F)F)cc2Cl)c1N (centres unmarked) [ethiprole, reference compound]
1 hour knockdown (Aedes aegypti mosquitoes; 0.0005 μg/mosquito): 0%
mortality at 0.0005 µg/mosquito (Aedes aegypti mosquitoes; Aedes aegypti, topical, 24 h, read-out: % MORTALITY AFTER 24 HRS, 0.0005 μg/mosquito): 97%

CC1CC=CCC1 (centres unmarked) [4-Methylcyclohexene]
mortality at 3 % (Aedes aegypti mosquitoes; [3]): 0%

CC(C)(C)C1=CCCCC1 [1-tert-Butyl . . .]
% MORTALITY AFTER 24 HRS (Aedes aegypti mosquitoes; [4]): 30%

CC1=CCCCC1 [1-Methyl-1-cyclohexene, 1-methyl-1-cyclohexene]
mortality at 3 % (Aedes aegypti mosquitoes; [3]): 40%

CC1(C)C2CC=C(C=O)C1C2 [(1R)-(−)-Myrtenal]
% MORTALITY AFTER 24 HRS (Aedes aegypti mosquitoes; 2%): 10%

CC/C=C\C/C=C\C/C=C\CCCCCCCC(=O)O [Linolenic acid]
1 hour knockdown (Aedes aegypti mosquitoes; 1%): 0%
1 hour knockdown (Aedes aegypti mosquitoes; 5%): 27%
1 hour knockdown (Aedes aegypti mosquitoes; 10%): 40%
1 hour knockdown (Aedes aegypti mosquitoes; 20%): 93%
mortality at 1 % (Aedes aegypti mosquitoes; Aedes aegypti, topical, 24 h, read-out: % MORTALITY AFTER 24 HRS, 1%): 3%
mortality at 5 % (Aedes aegypti mosquitoes; Aedes aegypti, topical, 24 h, read-out: % MORTALITY AFTER 24 HRS, 5%): 33%
mortality at 10 % (Aedes aegypti mosquitoes; Aedes aegypti, topical, 24 h, read-out: % MORTALITY AFTER 24 HRS, 10%): 83%
mortality at 20 % (Aedes aegypti mosquitoes; Aedes aegypti, topical, 24 h, read-out: % MORTALITY AFTER 24 HRS, 20%): 93%
mortality at 3 % (Aedes aegypti mosquitoes; Aedes aegypti, topical, 24 h, read-out: % MORTALITY AFTER 24 HRS, single active, 3%): 10%

CC1=CC(=O)CC(C)C1 (centres unmarked) [3.5-Dimethyl . . .]
% MORTALITY AFTER 24 HRS (Aedes aegypti mosquitoes; [4]): 30%

C=CC(C)=CCC=C(C)CCC=C(C)C [Farnesene]
1 hour knockdown (Aedes aegypti mosquitoes; 1%): 0%
% MORTALITY AFTER 24 HRS (Aedes aegypti mosquitoes; 1%): 3%
1 hour knockdown (Aedes aegypti mosquitoes; 3%): 3% and 0% and 7%
% MORTALITY AFTER 24 HRS (Aedes aegypti mosquitoes; 3%): 3%
1 hour knockdown (Aedes aegypti mosquitoes; 5%): 0%
% MORTALITY AFTER 24 HRS (Aedes aegypti mosquitoes; 5%): 13%
1 hour knockdown (Aedes aegypti mosquitoes; 10%): 87%
% MORTALITY AFTER 24 HRS (Aedes aegypti mosquitoes; 10%): 70%
1 hour knockdown (Aedes aegypti mosquitoes; 20%): 100%
% MORTALITY AFTER 24 HRS (Aedes aegypti mosquitoes; 20%): 100%
% MORTALITY AFTER 24 HRS (Aedes aegypti mosquitoes; single active, 3%): 7%
